Test results published in patent publication EP0311051A2, “Pyridylacetonitrile derivatives” (priority 1987, dated 1989).
In brackets after ≈: the same amount, converted by molar mass.

Legend:
Botrytis cinerea [1] = test: Antifungal activity against Botrytis cinerea by agar dilution method; format: cell-based; settings: 120 h, concentration for 90% inhibition of mycelium growth, potato-agar medium, 25°C, 5 days, read-out: EC₉₀
Protocol: The culture medium thus obtained was allowed to stand in a room with constant temperature for predetermined days. Thereafter, the growth of mycelium of the microorganism was measured and the concentration for 90% inhibition of the growth (EC₉₀) was determined. Four tests were carried out in each run. The tests for microorganisms were carried out at a temperature of 25°C for 5 days.

Botrytis cinerea [2] = test: Activity persistence against gray mold of egg plant (spray 1 to 10 days before inoculation); format: in vivo; settings: 250 ppm a.i.
Botrytis cinerea [3] = test: Curative activity against gray mold of egg plant (detached leaf, spray after disease development); format: in vivo; settings: 125 ppm a.i.
Protocol: A second developed leaf of egg plant (variety: Senryo #12) was placed in a petri dish and the mycelia of Botrytis cinerea grown on a PDA culture medium was inoculated after punching with a cork borer on the center of the leaf. The incubation was carried out at 25°C under humid condition for 24 hours. […] After air drying, the incubation was carried out at 25°C under humid condition. The diameter of the infected area was measured every day for 5 days after the application. Eight tests were carried out in each run.

Sclerotinia sclerotiorum = test: Antifungal activity against Sclerotinia rot of kidney bean (sprayed cotyledons, mycelial inoculation); format: in vivo; settings: 500 ppm a.i.; for Average infected area: 28°C, RH 100%, 4 days; for Controlled value: (1-S/S₀)×100, 4 days
Protocol: A 20 ml sample solution containing a predetermined concentration of the active compound was sprayed on 10 cotyledons of a kidney bean (variety: Masterpiece), which were dried in a room. After drying, the mycelia of Sclerotinia sclerotiorum grown on a PDA culture medium was inoculated after punching with a cork borer. The incubation was carried out at a temperature of 28°C and an RH of 100% for 4 days. The infected area was measured. Ten tests were carried out in each run. […]

[4] = test system: rice blast fungus (Pyricularia oryzae); format: in vivo; settings: 500 ppm a.i., 10 days after inoculation; for No. of leaves in each infection degree 0: index 0 = 0 lesions per leaf; for No. of leaves in each infection degree 1: index 1 = 1 lesion per leaf; for No. of leaves in each infection degree 2: index 2 = 2-5 lesions per leaf; for No. of leaves in each infection degree 3: index 3 = 6-10 lesions per leaf; for No. of leaves in each infection degree 4: index 4 = 11 or more lesions per leaf; for % of Infected leaves / Infection degree / No. of infected leaves: rice seedlings
[5] = 1 day between application and inoculation
[6] = 4 days between application and inoculation
[7] = 7 days between application and inoculation
[8] = 10 days between application and inoculation
[9] = 1 day between application and observation
[10] = 2 days between application and observation
[11] = 3 days between application and observation
[12] = 4 days between application and observation
[13] = 5 days between application and observation

Work on `CCCC(c1ccc(Cl)cc1Cl)C(C#N)n1ccnc1` (centres unmarked) [A, 3-(2,4-dichlorophenyl)-2-(1-imidazolyl)hexanenitrile] yielded an EC90 (Botrytis cinerea [1]) of 10.9 µg/mL (≈ 35.4 µM), an Infection degree (Botrytis cinerea [2]; [5]) of 25.0 and an Infection degree (Botrytis cinerea [2]; [6]) of 37.5. It also gave an Infection degree (Botrytis cinerea [2]; [7]) of 45.0, an Infection degree (Botrytis cinerea [2]; [8]) of 62.5 and a Diameter of lesion (Botrytis cinerea [3]; [9]) of 10 mm. The Diameter of lesion (Botrytis cinerea [3]; [10]) was 18 mm, the Diameter of lesion (Botrytis cinerea [3]; [11]) was 23 mm and the Diameter of lesion (Botrytis cinerea [3]; [12]) was 26 mm. It also gave a Diameter of lesion (Botrytis cinerea [3]; [13]) of 30 mm, an Average infected area (Sclerotinia sclerotiorum) of 40% and a Controlled value (Sclerotinia sclerotiorum) of 60%.

For `CCC(c1ccc(Cl)cc1Cl)C(C#N)c1cccnc1` (centres unmarked) [Compound 1, 3-(2,4-dichlorophenyl)-2-(3-pyridyl)pentanenitrile], the EC90 (Botrytis cinerea [1]) was 1.4 µg/mL (≈ 4.59 µM), the Infection degree (Botrytis cinerea [2]; [5]) was 10.0 and the Infection degree (Botrytis cinerea [2]; [6]) was 12.0. For the same compound, the Infection degree (Botrytis cinerea [2]; [7]) was 17.5, the Infection degree (Botrytis cinerea [2]; [8]) was 17.5 and the Diameter of lesion (Botrytis cinerea [3]; [9]) was 10 mm. It also gave a Diameter of lesion (Botrytis cinerea [3]; [10]) of 15 mm, a Diameter of lesion (Botrytis cinerea [3]; [11]) of 17 mm and a Diameter of lesion (Botrytis cinerea [3]; [12]) of 19 mm. For the same compound, the Diameter of lesion (Botrytis cinerea [3]; [13]) was 19 mm, the “No. of leaves in each infection degree 0” value [4] was 145 and the “No. of leaves in each infection degree 1” value [4] was 48. For the same compound, the “No. of leaves in each infection degree 2” value [4] was 13, the “No. of leaves in each infection degree 3” value [4] was 0 and the “No. of leaves in each infection degree 4” value [4] was 0. The “% of Infected leaves” value [4] was 29.6%, the Infection degree [4] was 9.0 and the “No. of infected leaves” value [4] was 206. It also gave an Average infected area (Sclerotinia sclerotiorum) of 5% and a Controlled value (Sclerotinia sclerotiorum) of 95%.

For `CCC(c1ccc(F)cc1Cl)C(C#N)c1cccnc1` (centres unmarked) [Compound 12, 3-(2-chloro-4-fluorophenyl)-2-(3-pyridyl)pentanenitrile], the EC90 (Botrytis cinerea [1]) was 0.9 µg/mL (≈ 3.12 µM), the Infection degree (Botrytis cinerea [2]; [5]) was 10.0 and the Infection degree (Botrytis cinerea [2]; [6]) was 11.0. For the same compound, the Infection degree (Botrytis cinerea [2]; [7]) was 12.0, the Infection degree (Botrytis cinerea [2]; [8]) was 15.0 and the Diameter of lesion (Botrytis cinerea [3]; [9]) was 10 mm. The Diameter of lesion (Botrytis cinerea [3]; [10]) was 15 mm, the Diameter of lesion (Botrytis cinerea [3]; [11]) was 17 mm and the Diameter of lesion (Botrytis cinerea [3]; [12]) was 19 mm. The Diameter of lesion (Botrytis cinerea [3]; [13]) was 19 mm, the Average infected area (Sclerotinia sclerotiorum) was 5% and the Controlled value (Sclerotinia sclerotiorum) was 95%.

Compound `CC12CC1(C)C(=O)N(c1cc(Cl)cc(Cl)c1)C2=O` (centres unmarked) [D, N-(3′,5′-dichlorophenyl)-1,2-dimethylcyclopropane-1,2-dicarboximide] has an Infection degree (Botrytis cinerea [2]; [5]) of 12.0, an Infection degree (Botrytis cinerea [2]; [6]) of 15.5 and an Infection degree (Botrytis cinerea [2]; [7]) of 20.5. The Infection degree (Botrytis cinerea [2]; [8]) was 25.0.

In the case of `COC(=O)NC(=S)Nc1ccccc1NC(=S)NC(=O)OC` [E, dimethyl-4,4′-o-phenylene-bis(3-thioalfanate)], the Diameter of lesion (Botrytis cinerea [3]; [9]) was 10 mm, the Diameter of lesion (Botrytis cinerea [3]; [10]) was 18 mm and the Diameter of lesion (Botrytis cinerea [3]; [11]) was 21 mm. The Diameter of lesion (Botrytis cinerea [3]; [12]) was 22 mm, the Diameter of lesion (Botrytis cinerea [3]; [13]) was 26 mm and the Average infected area (Sclerotinia sclerotiorum) was 20%. It also gave a Controlled value (Sclerotinia sclerotiorum) of 80%.

For `CC(C)OC(=O)C(C(=O)OC(C)C)=C1SCCS1` [F, diisopropyl-1,3,-dithiolan-2-ylidene malonate], the “No. of leaves in each infection degree 0” value [4] was 128, the “No. of leaves in each infection degree 1” value [4] was 45 and the “No. of leaves in each infection degree 2” value [4] was 12. The “No. of leaves in each infection degree 3” value [4] was 0, the “No. of leaves in each infection degree 4” value [4] was 0 and the “% of Infected leaves” value [4] was 30.8%. The Infection degree [4] was 9.3 and the “No. of infected leaves” value [4] was 185.

`O=C1OCc2c(Cl)c(Cl)c(Cl)c(Cl)c21` [G, 4,5,6,7-tetrachlorophthalide] was tested, and the “No. of leaves in each infection degree 0” value [4] was 151, the “No. of leaves in each infection degree 1” value [4] was 28 and the “No. of leaves in each infection degree 2” value [4] was 1. For the same compound, the “No. of leaves in each infection degree 3” value [4] was 0, the “No. of leaves in each infection degree 4” value [4] was 0 and the “% of Infected leaves” value [4] was 16.1%. The Infection degree [4] was 4.2 and the “No. of infected leaves” value [4] was 180.
